We go through 3 molecules from patent US9192666B2, “Method of treating cancer using anti-c-Met antibody and FGFR inhibitor combination therapy” (Samsung Electronics Co., Ltd., priority 2013, dated 2015).

Experiment [1] concerns L3-1Y/IgG2 resistant MKN45 cells. Put plainly: Cell viability in L3-1Y/IgG2 resistant MKN45 cells. It counts as cell-based. To be noted: 72 hours, PD173074 10 uM, BGJ398 5 uM. The method, then:
To verify that the co-treatment with a FGFR inhibitor allows overcoming a L3-1Y/IgG2 resistance acquired by repeated treatment of L3-1Y/IgG2, L3-1Y/IgG2 resistant cells were prepared by treating L3-1Y/IgG2 to MKN45 gastric cancer cell line for at least 3 months, and used for the following experiment. The L3-1Y/IgG2 resistant cells were prepared as follows: MKN45 cells (JCRB, JCRB0254) were treated with L3-1Y/IgG2, where the concentration of treated L3-1Y/IgG2 was increased from 1 ug/ml to 10 ug/ml, until the resistance is acquired. To verify the acquirement of resistance to L3-1Y/IgG2, the resistance acquired clones were cultured with or without L3-1Y/IgG2 treatment, and at 72 hours after the treatment, the cell number was measured by CellTiter Glo assay (Promega, G7573), referring to the above example,
The synergistic effect of co-treatment of a FGFR inhibitor and L3-1Y/IgG2 was verified as follows. The prepared L3-1Y/IgG2 resistant MKN45 cells were seeded at the amount of 5,000 cells/well on 96 well plate to which RPMI1640 medium (GIBCO) supplemented with 10% FBS is added, and incubated overnight at 37° C. Next day (24 hours after), the incubated cells were treated with L3-1Y/IgG2 alone or together with FGFR inhibitor, PD173074 or BGJ398. For the treatment of L3-1Y/IgG2 only, the concentration of L3-1Y/IgG2 was 0 ug/ml, 0.016 ug/ml, 0.08 ug/ml, 0.4 ug/ml, or 2 ug/ml, and for the co-treatment, the concentration of the FGFR inhibitor was fixed and the concentration of L3-1Y/IgG2 was 0 ug/ml, 0.016 ug/ml, 0.08 ug/ml, 0.4 ug/ml, or 2 ug/ml. The concentration of the FGFR inhibitor was fixed at 10 uM for PD173074 and 5 uM for BGJ398.
(§1) At 72 hours after the single treatment or the co-treatment, 100 uL of CellTiter Glo solution (Promega, G7572) was added to each well, and left for 30 minutes at room temperature. The cell number was counted by emission signal, and the emission signal was recorded using Envision 2104 Multi-label Reader (Perkin Elmer).

Experiment [2] relates to L3-1Y/IgG2 resistant EBC1 cells. The experiment is described as follows: Cell viability in L3-1Y/IgG2 resistant EBC1 cells. Format: cell-based. To be noted: 72 hours, BGJ398 5 uM. As for the experimental part:
To verify that the co-treatment with a FGFR inhibitor allows overcoming a L3-1Y/IgG2 resistance acquired by repeated treatment of L3-1Y/IgG2, L3-1Y/IgG2 resistant cells were prepared by treating L3-1Y/IgG2 to EBC1 lung cancer cell line for at least 3 months, and used for the following experiment. The EBC1 lung cancer cell line acquiring the resistant to L3-1Y/IgG2 was prepared referring to Example 4.
The synergistic effect of co-treatment of a FGFR inhibitor and L3-1Y/IgG2 was verified as follows. The prepared L3-1Y/IgG2 resistant EBC1 cells were seeded at the amount of 5,000 cells/well on a 96 well plate to which RPMI1640 medium (GIBCO) supplemented with 10% FBS is added, and incubated overnight at 37° C. Next day (24 hours after), the incubated cells were treated with L3-1Y/IgG2 alone or together with FGFR inhibitor, BGJ398. […]
as §1

Experiment [3] deals with MKN45 gastric cancer cells. The experiment is described as follows: Tumor xenograft model of MKN45 gastric cancer cell line. Format: in vivo, BALB/c nude mice. The following applies: 21st day after treatment vs vehicle, BGJ398 10 mg/kg P.O. once a day, L3-1Y/IgG2 1 mg/kg I.V. once a week. As for the experimental part:
To verify the in vivo effect of the co-administration on tumor growth, a tumor xenograft model was prepared using male 5-6 week-old BALB/c nude mice (Pharmalegacy, China). The mice were adapted at least one week before inoculation of tumor cells.
Then, the mice were anesthetized with 1-2% isofurane, and MKN45 gastric cancer cells (JCRB, JCRB0254) were subcutaneously injected into right flank of the mice at the amount of 5×10^6 cells/each mouse. 7 days after, when the average size of tumor reaches 50 mm^3 or more, the mice were grouped into the following groups: a group treated with BGJ398 (10 mg/kg P.O., once a day), a group treated with L3-1Y/IgG2 (1 mg/kg I.V., once a week), a group co-treated with L3-1Y/IgG2 (1 mg/kg, I.V., once a week) and BGJ398 (10 mg/kg, P.O., once a day), and a group (control) treated with vehicle (PBS 0.2 ml, I.V., once a week). Each group consisted of 10 mice.
The experiment was performed for 4 weeks in total, and tumor size and body weight of the mice were measured twice a week. The tumor volume (V) was calculated by the following formula: V(mm^3)={length of long axis(mm)×(length of short axis(mm))^2}/2.

The subject of experiment [4] is MKN45 gastric cancer cells. Put plainly: Cell viability (CellTiter Glo) in MKN45 gastric cancer cell line. Format: cell-based. To be noted: for cell growth inhibition: MKN45, 72 hours, L3-1Y/IgG2 0-2 ug/ml, PD173074 fixed at 10 uM. As for the experimental part:
In particular, RPMI1640 medium (GIBCO) containing 10% FBS was put in a 96 well plate. MKN45 gastric cancer cells (JCRB, JCRB0254) were seeded thereon in the amount of 5,000 cells/well, and incubated overnight at 37° C. After 24 hours (the next day), the incubated cells were treated with L3-1Y/IgG2 (Reference Example 1) alone, or co-treated with L3-1Y/IgG2 and a FGFR inhibitor, PD173074. For the single treatment of L3-1Y/IgG2 alone, the concentration of L3-1Y/IgG2 was 0 ug (microgram)/ml, 0.016 ug/ml, 0.08 ug/ml, 0.4 ug/ml, or 2 ug/ml, and for the co-treatment of L3-1Y/IgG2 and PD173074, the concentration of PD173074 was fixed at 10 uM (micromole) which is a concentration of IC20 in MKN45 cell line, and the concentration of L3-1Y/IgG2 was 0 ug/ml, 0.016 ug/ml, 0.08 ug/ml, 0.4 ug/ml, or 2 ug/ml.
At 72 hours after the single treatment or the co-treatment, 100 uL (microliter) of CellTiter Glo solution (Promega, G7572) was added to each well, and left for 30 minutes at room temperature. The cell number was counted by emission signal, and the emission signal was recorded using Envision 2104 Multi-label Reader (Perkin Elmer).

The subject of the next experiment is EBC1 lung cancer cells. The experiment is described as follows: Cell viability (CellTiter Glo) in EBC1 lung cancer cell line. Format: cell-based. The following applies: 72 hours, L3-1Y/IgG2 0-2 ug/ml, PD173074 10 uM or BGJ398 5 uM. As for the experimental part:
(§2) In particular, RPMI1640 medium (GIBCO) containing 10% FBS were put in 96 well plate. EBC1 lung cancer cells (JCRB, JCRB0820) were seeded thereon in the amount of 5,000 cells/well, and incubated overnight at 37° C. After 24 hours (the next day), the incubated cells were treated with L3-1Y/IgG2 (Reference Example 1) alone, or co-treated with L3-1Y/IgG2 and a FGFR inhibitor, PD173074 or BGJ398. For the single treatment of L3-1Y/IgG2 alone, the concentration of L3-1Y/IgG2 was 0 ug/ml, 0.016 ug/ml, 0.08 ug/ml, 0.4 ug/ml, or 2 ug/ml, and for the co-treatment of L3-1Y/IgG2 and PD173074 or BGJ398, the concentration of PD173074 was fixed at 10 uM for PD173074 and 5 uM for BGJ398, and the concentration of L3-1Y/IgG2 was 0 ug/ml, 0.016 ug/ml, 0.08 ug/ml, 0.4 ug/ml, or 2 ug/ml.
as §1
On the technique in general: Cellular ATP, detected with luciferase, serves as a proxy for viable cell number.

A further experiment has as its system HT29 colon cancer cells. Put plainly: Cell viability (CellTiter Glo) in HT29 colon cancer cell line. It counts as cell-based. To be noted: 72 hours, L3-1Y/IgG2 0-2 ug/ml, PD173074 fixed at 5 uM. As for the experimental part: as §2, with “HT29 colon” for “EBC1 lung”, “(ATCC, HTB-38)” for “(JCRB, JCRB0820)”, “PD173074.” for “PD173074 or BGJ398.”, “PD173074,” for “PD173074 or BGJ398,”, “at” for “at 10 uM for PD173074 and”, “uM,” for “uM for BGJ398,”
as §1

`CCN1CCN(c2ccc(Nc3cc(N(C)C(=O)Nc4c(Cl)c(OC)cc(OC)c4Cl)ncn3)cc2)CC1` [BGJ398, 3-(2,6-dichloro-3,5-dimethoxyphenyl)-1-(6-(4-(4-ethylpiperazin-1-yl)phenylamino)pyrimidin-4-yl)-1-methylurea, reference compound]: the “cancer cell growth inhibitory effect” value in experiment [1] and in experiment [2] was “not obtained” in each case. The “tumor inhibition rate, At d21:TV” value in experiment [3] is reported as 1.3%.
As to `CCN(CC)CCCCNc1ncc2cc(-c3cc(OC)cc(OC)c3)c(NC(=O)NC(C)(C)C)nc2n1` [PD173074, N-[2-[[4-(Diethylamino)butyl]amino]-6-(3,5-dimethoxyphenyl)pyrido[2,3-d]pyrimidin-7-yl]-N′-(1,1-dimethylethyl)urea], the IC20 in experiment [4] (Homo sapiens, MKN-45, read-out: concentration of IC20 in MKN45 cell line) came out at 10 µM. The cell growth inhibition result in experiment [4] is given as “no significant effect on cell growth”. Also, the “cancer cell growth inhibitory effect” value in experiment [1] is “not obtained”.

B1: L3-1Y/IgG2: anti-c-Met antibody: huAbF46-H4-A1 heavy chain variable region, human IgG2 hinge and constant region, kappa light chain (antibody)
heavy: EVQLVESGGGLVQPGGSLRLSCAASGFTFTDYYMSWVRQAPGKGLEWLGFIRNKANGYTTEYSASVKGRFTISRDNSKNTLYLQMNSLRAEDTAVYYCARDNWFAYWGQGTLVTVSSASTKGPSVFPLAPCSRSTSESTAALGCLVKDYFPEPVTVSWNSGALTSGVHTFPAVLQSSGLYSLSSVVTVPSSNFGTQTYTCNVDHKPSNTKVDKTVERKCCVECPPCPAPPVAGPSVFLFPPKPKDTLMISRTPEVTCVVVDVSHEDPEVQFNWYVDGVEVHNAKTKPREEQFNSTFRVVSVLTVVHQDWLNGKEYKCKVSNKGLPAPIEKTISKTKGQPREPQVYTLPPSREEMTKNQVSLTCLVKGFYPSDIAVEWESNGQPENNYKTTPPMLDSDGSFFLYSKLTVDKSRWQQGNVFSCSVMHEALHNHYTQKSLSLSPGK
light: DIQMTQSPSSLSASVGDRVTITCKSSQSLLASGNQNNYLAWYQQKPGKAPKMLIIWASTRVSGVPSRFSGSGSGTDFTLTISSLQPEDFATYYCQQSYSRPYTFGQGTKVEIKRTVAAPSVFIFPPSDEQLKSGTASVVCLLNNFYPREAKVQWKVDNALQSGNSQESVTEQDSKDSTYSLSSTLTLSKADYEKHKVYACEVTHQGLSSPVTKSFNRGEC
Consider B1, for which the results for the cell growth inhibition entry (in experiment [4]; in the experiment on EBC1 lung cancer cells) were “cell growth inhibition is observed” and “cell growth inhibiting effect is observed”, respectively. For the same molecule, in the experiment on HT29 colon cancer cells, the “cell growth inhibiting effect” value is reported as “not observed”. For the same molecule, the “cancer cell growth inhibitory effect” value in experiment [1] and in experiment [2] was “not obtained” throughout. For the same molecule, the “tumor inhibition rate, At d21:TV” value in experiment [3] was found to be 27.8%.
